Data reported in ChEMBL document CHEMBL4834452, “Discovery of a novel series of substituted quinolines acting as anticancer agents and selective EGFR blocker: Molecular docking study” (Bioorg Med Chem Lett, 2021).

Tests used:
MCF7 = assay: Anticancer activity against human MCF7 cells assessed as cell growth inhibition measured by MTT assay; type: functional, cell-based
HepG2 = assay: Anticancer activity against human HepG2 cells assessed as cell growth inhibition measured by MTT assay; type: functional, cell-based
PC-3 = assay: Anticancer activity against human PC-3 cells assessed as cell growth inhibition measured by MTT assay; type: functional, cell-based
HCT-116 = assay: Anticancer activity against human HCT-116 cells assessed as cell growth inhibition measured by MTT assay; type: functional, cell-based
[1] = molecular target: Epidermal growth factor receptor (Homo sapiens, UniProt P00533); assay: Inhibition of recombinant wild type EGFR-TK (unknown origin) by ELISA
Epidermal growth factor receptor, sequence (P00533 whole entry): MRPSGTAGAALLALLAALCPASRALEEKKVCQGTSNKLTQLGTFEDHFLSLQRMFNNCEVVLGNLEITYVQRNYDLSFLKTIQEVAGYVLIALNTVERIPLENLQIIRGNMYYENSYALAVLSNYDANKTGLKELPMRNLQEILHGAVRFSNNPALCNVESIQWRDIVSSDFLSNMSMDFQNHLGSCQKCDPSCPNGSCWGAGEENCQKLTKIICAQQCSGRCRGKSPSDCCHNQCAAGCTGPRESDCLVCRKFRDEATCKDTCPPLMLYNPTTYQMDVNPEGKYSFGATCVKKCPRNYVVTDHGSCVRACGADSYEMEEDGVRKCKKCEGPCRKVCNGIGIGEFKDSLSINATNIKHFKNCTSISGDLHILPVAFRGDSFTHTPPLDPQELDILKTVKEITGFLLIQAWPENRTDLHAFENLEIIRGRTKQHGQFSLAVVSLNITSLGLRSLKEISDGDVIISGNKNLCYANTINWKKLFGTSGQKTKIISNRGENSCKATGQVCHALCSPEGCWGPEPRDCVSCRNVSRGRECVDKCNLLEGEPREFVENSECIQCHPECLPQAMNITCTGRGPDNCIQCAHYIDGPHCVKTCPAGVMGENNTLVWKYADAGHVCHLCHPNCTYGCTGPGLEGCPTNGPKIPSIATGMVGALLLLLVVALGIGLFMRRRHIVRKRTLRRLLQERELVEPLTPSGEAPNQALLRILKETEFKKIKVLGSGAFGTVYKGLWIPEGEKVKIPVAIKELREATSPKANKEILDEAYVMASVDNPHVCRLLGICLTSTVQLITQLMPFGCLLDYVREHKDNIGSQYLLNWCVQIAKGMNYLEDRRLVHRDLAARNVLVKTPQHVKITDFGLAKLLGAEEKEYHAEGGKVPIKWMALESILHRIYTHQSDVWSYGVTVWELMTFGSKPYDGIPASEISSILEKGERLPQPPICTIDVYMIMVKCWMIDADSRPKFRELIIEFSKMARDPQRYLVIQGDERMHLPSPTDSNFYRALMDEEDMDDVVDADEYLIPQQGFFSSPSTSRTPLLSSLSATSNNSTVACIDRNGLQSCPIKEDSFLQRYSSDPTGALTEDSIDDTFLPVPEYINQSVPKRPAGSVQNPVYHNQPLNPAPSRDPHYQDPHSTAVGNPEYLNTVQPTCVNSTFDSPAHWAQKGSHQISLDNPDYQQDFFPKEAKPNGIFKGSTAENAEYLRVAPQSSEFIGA

Row | IC50 (MCF7) [µM] | IC50 (HepG2) [µM] | IC50 (PC-3) [µM] | IC50 (HCT-116) [µM] | IC50 [1] [µM] | Compound
1 | 11.6 | 17.7 | 26.9 | 20.5 |  | C#Cc1cccc(Nc2ncnc3cc(OCCOC)c(OCCOC)cc23)c1 [ERLOTINIB]
2 | 10.8 | 18.3 | 32.9 | 19.6 | 0.96 | COc1ccc(C(Nc2ccc(Br)cc2)n2c(=O)ccc3cc(O)ccc32)cc1 (centres undefined)
3 | 21.1 | 29.7 | 48 | 36.6 | 1.35 | COc1ccc(C(Nc2ccc([N+](=O)[O-])cc2)n2c(=O)ccc3cc(O)ccc32)cc1 (centres undefined)
4 | 49.2 | 61.4 | 85.3 | 73.3 | 5.29 | COc1ccc(NC(c2ccc(OC)cc2)n2c(=O)ccc3cc(O)ccc32)cc1 (centres undefined)
5 | 11.3 | 21.5 | 35.2 | 20.4 | 1.13 | COc1ccc(C(Nc2ccc(Cl)cc2)n2c(=O)ccc3cc(O)ccc32)cc1 (centres undefined)
6 | 35.1 | 46.3 | 79.7 | 53.7 | 14.3 | COc1ccc(C(Nc2ccccc2)n2c(=O)ccc3cc(O)ccc32)cc1 (centres undefined)
